From publication PMC11784839, “Monoaminergic neurotransmitters are bimodal effectors of tau aggregation” (Science Advances, 2025)

Molecular target: tau (Homo sapiens, UniProt P10636)
Assay: MCE Phenols Library screening, tau biosensor cell seeding assay (AvZ)
Format: cell-based
Conditions: for Z repl 1 / Z Repl 2: Z score; for Z repl 1 / raw data 1: replicate 1; for Z Repl 2 / raw data 2: replicate 2; for AvZ (average z score of seeding, SDs from the mean level of seeding): 10 μM phenol in cell cultures, AD brain homogenate preincubated 16 hours, two biological replicates, positive = catalyzes seeding, negative = inhibits
[1] = average Z score of the two replicates, MCE Phenols Library screen
[2] = average puncta of the two replicates
[3] = average Z score of two replicates, Phenols Library screen
[4] = average Z score of the two replicates, tau seeding

tau, sequence (P10636 623-695 limits assumed): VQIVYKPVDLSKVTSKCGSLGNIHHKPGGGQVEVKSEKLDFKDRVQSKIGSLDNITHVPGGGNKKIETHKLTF

Z repl 1	Z Repl 2	av Z [1]	av puncta [2]	raw data 1 (raw puncta)	raw data 2 (raw puncta)	av puncta (average of raw data 1 and 2)	raw data 1 (puncta)	raw data 2 (puncta)	av Z [3]	AvZ (average z score of seeding, SDs from the mean level of seeding)	av Z [4]	av Z (average Z score of the two replicates, tau biosensor seeding, MCE Phenols Library screen)	Compound
-0.796	-0.937	-0.867	–	–	–	9774.18	16789.2	2759.19	–	–	–	–	COc1cc(C)c2c(=O)cc(C[C@@H](C)O)oc2c1[C@@H]1O[C@H](CO)[C@@H](O)[C@H](O)[C@H]1OC(=O)/C=C/c1ccc(O)cc1 [Aloeresin D]
0.022	-0.802	-0.39	15407.7	26610.5	4204.9	–	–	–	–	–	–	–	O=c1cc(-c2ccc(O)cc2)oc2c([C@@H]3O[C@H](CO)[C@@H](O)[C@H](O)[C@H]3O)c(O)c([C@@H]3OC[C@@H](O)[C@H](O)[C@H]3O)c(O)c12 [Vicenin-1]
-0.381	-0.64	-0.51	13854.4	–	–	–	21773.2	5935.58	–	–	–	–	COc1ccc(-c2oc3c(CCC(C)(C)O)c(O[C@@H]4O[C@H](CO)[C@@H](O)[C@H](O)[C@H]4O)cc(O)c3c(=O)c2O)cc1 [Maohuoside A]
-2.035	-1.192	-1.614	–	–	–	972.721	1914.49	30.952	–	–	–	–	O=C(O[C@@H]1Cc2c(O)cc(O)cc2O[C@@H]1c1cc(O)c(=O)c2c(O)c(O)cc([C@H]3Oc4cc(O)cc(O)c4C[C@H]3O)c2c1)c1cc(O)c(O)c(O)c1 [Theaflavin-3-gallate]
0.279	-0.269	–	–	–	–	19792.1	29696.2	9887.95	–	0.005	–	–	N[C@@H](Cc1c[nH]c2ccc(O)cc12)C(=O)O [L-5-Hydroxytryptophan]
0.626	-0.232	–	–	–	–	22078.3	33866.6	10290	–	–	0.197	–	O=C(c1ccc(O)cc1)c1c(O)cc(O)c([C@@H]2O[C@H](CO)[C@@H](O)[C@H](O)[C@H]2O)c1O [Iriflophenone 3-C-glucoside]
-0.53	-0.01	-0.27	16324	19990.7	12657.2	–	–	–	–	–	–	–	COc1cc(/C=C/C(=O)O[C@H]2[C@H](O)[C@@H](CO)O[C@@]2(CO)O[C@H]2O[C@H](COC(=O)c3ccc(O)cc3)[C@@H](O)[C@H](O)[C@H]2O)cc(OC)c1O [Tenuifoliside B]
-0.457	-0.762	–	12741.3	–	–	–	20857.9	4624.75	–	-0.61	–	–	COC(=O)Cc1ccc(O)cc1 [Methyl 4-hydroxyphenylacetate]
-0.6	-0.013	-0.307	15884.9	19142	12627.8	–	–	–	–	–	–	–	O=C(O)[C@H]1O[C@@H](Oc2cc(O)c3c(=O)cc(-c4ccc(O)c(O)c4)oc3c2)[C@H](O)[C@@H](O)[C@@H]1O [Luteolin 7-O-glucuronide]
0.021	0.172	–	–	–	–	20601.9	26603.6	14600.1	–	0.096	–	–	COc1cc(/C=C/C=O)cc(OC)c1O [Sinapaldehyde]
0.23	-0.492	–	–	–	–	18310.1	29105.9	7514.37	-0.131	–	–	–	C[C@@H]1O[C@@H](OC[C@H]2O[C@@H](OCCc3ccc(O)c(O)c3)[C@H](O)[C@@H](O)[C@@H]2OC(=O)/C=C/c2ccc(O)c(O)c2)[C@H](O)[C@H](O)[C@H]1O [Forsythiaside A]
1.449	1.251	–	–	–	–	34936.6	43747.9	26125.3	–	1.35	–	–	COc1cc(C(=O)OCCCCNC(=N)N)cc(OC)c1O [Leonurine]
0.039	-0.742	–	15824.3	26811.5	4837.1	–	–	–	–	-0.352	–	–	COc1cc(CC(=O)C(=O)O)ccc1O [Vanilpyruvic acid]
1.599	0.945	–	–	–	–	34202.6	45542.6	22862.6	–	–	–	1.272	OC[C@H]1O[C@@H](Oc2ccc(O)cc2)[C@H](O)[C@@H](O)[C@@H]1O [?-Arbutin]
-0.415	-0.284	–	15550.1	21362.3	9737.92	–	–	–	–	-0.349	–	–	COC(=O)/C=C/c1ccc(O)c(O)c1 [Methyl caffeate]
-0.067	-0.383	-0.225	17108.5	25544.8	8672.24	–	–	–	–	–	–	–	O=c1c(O[C@@H]2OC[C@H](O)[C@H](O)[C@H]2O)c(-c2ccc(O)c(O)c2)oc2cc(O)cc(O)c12 [Guaijaverin]
-0.951	-0.064	–	13509	–	–	–	14936.2	12081.7	–	–	–	–	CCCCCCCCC/C=C/C(=O)CCc1ccc(O)c(OC)c1 [[10]-Shogaol]
0.462	0.318	–	–	–	–	24029.7	31895.3	16164	–	–	0.39	–	O=C(O)CC(O)(CC(=O)OCc1ccc(O[C@@H]2O[C@H](CO)[C@@H](O)[C@H](O)[C@H]2O)cc1)C(=O)OCc1ccc(O[C@@H]2O[C@H](CO)[C@@H](O)[C@H](O)[C@H]2O)cc1 (some centres unmarked) [Parishin B]

More lines, now with the values behind:

Compound	Z repl 1	Z Repl 2	av Z [1]	av puncta [2]	raw data 1 (raw puncta)	raw data 2 (raw puncta)	av puncta (average of raw data 1 and 2)	raw data 1 (puncta)	raw data 2 (puncta)	av Z [3]	AvZ (average z score of seeding, SDs from the mean level of seeding)	av Z [4]	av Z (average Z score of the two replicates, tau biosensor seeding, MCE Phenols Library screen)
O=C(/C=C/c1ccc(O)cc1)c1ccccc1 [4-Hydroxychalcone]	-0.784	-0.093	-0.439	14353.6	16932.9	11774.3	–	–	–	–	–	–	–
COC(=O)[C@]1(O)C[C@@H](O)[C@@H](O)[C@H](OC(=O)/C=C/c2ccc(O)c(O)c2)C1 [3-O-Caffeoylquinic acid methyl ester]	-0.373	0.274	–	–	–	–	18786.4	21876.3	15696.4	-0.049	–	–	–
Cc1cc(O)c2c(c1)C(=O)c1cc(O)cc(O)c1C2=O [Emodin]	0.139	-0.692	-0.277	16696.4	28020.6	5372.21	–	–	–	–	–	–	–
Cc1cc(=O)oc2c(O)c(O)ccc12 [4-Methyldaphnetin]	-1.037	-0.74	-0.889	–	–	–	9377.72	13895.3	4860.11	–	–	–	–
O=C(O)c1cc(O)c(O)c(O)c1 [Gallic acid]	-2.072	-1.182	–	–	–	–	803.018	1468.86	137.18	–	-1.627	–	–
CC(=O)Oc1ccc(/C=C/c2cc(OC(C)=O)cc(OC(C)=O)c2)cc1 [Triacetylresveratrol]	-0.969	-0.064	-0.517	13396.5	–	–	–	14710.4	12082.6	–	–	–	–
OCc1ccc(O[C@@H]2O[C@H](CO)[C@@H](O)[C@H](O)[C@H]2O)cc1 [Gastrodin]	-1.05	-0.621	-0.836	–	–	–	9937.48	13738.4	6136.55	–	–	–	–
O=c1cc(-c2ccc(O)cc2)oc2cc(O)ccc12 [7,4'-Dihydroxyflavone]	0.712	-0.135	–	–	–	–	23112.9	34900.1	11325.8	–	–	0.289	–
COc1c2ccoc2c(O)c2oc(=O)ccc12 [8-Hydroxybergapten]	-0.103	0.252	–	–	–	–	20281.2	25106.7	15455.8	0.074	–	–	–
Oc1c(Br)cccc1Br [2,6-Dibromophenol]	-0.611	0.25	–	–	–	–	17229.5	19019.6	15439.4	–	-0.18	–	–
COc1cc(-c2oc3cc(O)cc(O)c3c(=O)c2O[C@@H]2O[C@H](CO[C@@H]3O[C@@H](C)[C@H](O)[C@@H](O)[C@H]3O)[C@@H](O)[C@H](O)[C@H]2O[C@@H]2O[C@@H](C)[C@H](O)[C@@H](O)[C@H]2O)ccc1O [Typhaneoside]	-0.172	-0.068	–	–	–	–	18163.3	24283.7	12042.9	-0.12	–	–	–
CC(=O)c1c(O)c(C)c(O)c(Cc2c(O)c3c(c(C(=O)/C=C/c4ccccc4)c2O)OC(C)(C)C=C3)c1O [Rottlerin]	0.296	1.083	–	–	–	–	27122.4	29908.4	24336.4	–	–	0.69	–
C[C@H]1CCCC(=O)CCC/C=C/c2cc(O)cc(O)c2C(=O)O1 [Zearalenone]	-0.335	0.423	–	–	–	–	19802.8	22326	17279.6	0.044	–	–	–
